Results published in PMC4965013, “Open Source Drug Discovery with the Malaria Box Compound Collection for Neglected Diseases and Beyond” (PLoS Pathogens, 2016).
Where two headings read alike, the source gives them in different places.

What was measured:
[1] = tested on: P. falciparum 3D7 trophozoites; experiment: Metabolomic fingerprint profiling LC-MS; format: cell-based, Plasmodium falciparum; parameters: UDP-D-glucose / ADP-D-glucose: unit not given here; conditions: for Acetyllysine / N-acetyl-L-ornithine / N-carbamoyl-L-aspartate / NADPH / dAMP / dCMP / dTDP / dTMP / dTTP / dihydroorotate / orotate / DLH / DLS/SDL/SID / PD / PEE / PVNF / 3-phosphoglycerate / ADP-D-glucose / ATP / CDP / D-sedoheptulose-1/7-phosphate / FAD / GMP / NAD+ / NADP+ / Octoluse Bisphosphate / Pyroglutamic acid / UDP-D-glucose / UDP-D-glucuronate / UDP-N-acetyl-glucosamine / UDP / UMP / UTP / a-ketoglutarate / citrate/isocitrate / cytidine / dATP / dGMP/AMP / fumarate / glucose-1/6-phosphate / glycerate / guanine / guanosine / hypoxanthine / indole / inosine / nicotinate / ornithine / phosphoenolpyruvate / pyruvate / ribose-phosphate / sarcosine/alanine / sn-glycerol-3-phosphate / succinate/methylmalonic acid / uridine / xanthosine: S2 Table Metabolomics; for Acetyllysine: metabolite Acetyllysine; for N-acetyl-L-ornithine: metabolite N-acetyl-L-ornithine; for N-carbamoyl-L-aspartate: metabolite N-carbamoyl-L-aspartate; for NADPH: metabolite NADPH; for dAMP: metabolite dAMP; for dCMP: metabolite dCMP; for dTDP: metabolite dTDP; for dTMP: metabolite dTMP; for dTTP: metabolite dTTP; for dihydroorotate: metabolite dihydroorotate; for orotate: metabolite orotate; for DLH: peptide DLH; for DLS/SDL/SID: peptide DLS/SDL/SID; for PD: peptide PD; for PEE: peptide PEE; for PVNF: peptide PVNF; for 3-phosphoglycerate: metabolite 3-phosphoglycerate; for ADP-D-glucose: metabolite ADP-D-glucose; for ATP: metabolite ATP; for CDP: metabolite CDP; for CDP / D-sedoheptulose-1/7-phosphate / GMP / Octoluse Bisphosphate / UDP / UMP / UTP / citrate/isocitrate / dGMP/AMP / fumarate / glucose-1/6-phosphate / glycerate / guanine / guanosine / inosine / pyruvate / sarcosine/alanine / succinate/methylmalonic acid / uridine / xanthosine: change in metabolite level after compound treatment; for D-sedoheptulose-1/7-phosphate: metabolite D-sedoheptulose-1/7-phosphate; for FAD: metabolite FAD; for GMP: metabolite GMP; for NAD+: metabolite NAD+; for NADP+: metabolite NADP+; for Octoluse Bisphosphate: metabolite Octoluse Bisphosphate; for Pyroglutamic acid: metabolite Pyroglutamic acid; for UDP-D-glucose: metabolite UDP-D-glucose; for UDP-D-glucuronate: metabolite UDP-D-glucuronate; for UDP-N-acetyl-glucosamine: metabolite UDP-N-acetyl-glucosamine; for UDP: metabolite UDP; for UMP: metabolite UMP; for UTP: metabolite UTP; for a-ketoglutarate: metabolite a-ketoglutarate; for citrate/isocitrate: metabolite citrate/isocitrate; for cytidine: metabolite cytidine; for dATP: metabolite dATP; for dGMP/AMP: metabolite dGMP/AMP; for fumarate: metabolite fumarate; for glucose-1/6-phosphate: metabolite glucose-1/6-phosphate; for glycerate: metabolite glycerate; for guanine: metabolite guanine; for guanosine: metabolite guanosine; for hypoxanthine: metabolite hypoxanthine; for indole: metabolite indole; for inosine: metabolite inosine; for 2_3-Diphosphoglyceric acid / 4-phosphopantothenate / 6-phospho-D-gluconate / FMN / IMP / Pyrophosphate / Sedoheptoluse bisphosphate / cyclic-AMP / glutathione disulfide / lactate / myo-inositol: metabolite level change after treatment; for nicotinate: metabolite nicotinate; for ornithine: metabolite ornithine; for phosphoenolpyruvate: metabolite phosphoenolpyruvate; for pyruvate: metabolite pyruvate; for ribose-phosphate: metabolite ribose-phosphate; for sarcosine/alanine: metabolite sarcosine/alanine; for sn-glycerol-3-phosphate: metabolite sn-glycerol-3-phosphate; for succinate/methylmalonic acid: metabolite succinate/methylmalonic acid; for uridine: metabolite uridine; for xanthosine: metabolite xanthosine
P. falciparum = experiment: EC50 listed in S2 Table Metabolomics (used to set the concentration tested); format: cell-based; conditions: Plasmodium falciparum; EC50 used for Factor_XEC50 in metabolomics; read-out: EC50_nM
P. falciparum 3D7 = experiment: [3H]-hypoxanthine growth inhibition, modified HCO3- or O2; format: cell-based; conditions: for IC50: Plasmodium falciparum

CCC(c1ccccc1)c1nn2c(-c3cccs3)nnc2s1 (stereo not shown) [MMV665876]
Acetyllysine [1]: 0.283
N-acetyl-L-ornithine [1]: 0.02574
N-carbamoyl-L-aspartate [1]: 2.073
NADPH [1]: -0.7617
dAMP [1]: 0.5954
dCMP [1]: -0.9145
dTDP [1]: -1.527
dTMP [1]: -1.62
dTTP [1]: -1.561
dihydroorotate [1]: 2.966
orotate [1]: -1.924
DLH [1]: -0.4979
DLS/SDL/SID [1]: -0.4746
PD [1]: 0.3937
PEE [1]: -0.2764
PVNF [1]: -2.041
3-phosphoglycerate [1]: -0.3031
ADP-D-glucose [1]: -0.09411
ATP [1]: -0.3796
CDP [1]: -0.8385
D-sedoheptulose-1/7-phosphate [1]: 0.09562
FAD [1]: 0.1414
GMP [1]: -0.3833
NAD+ [1]: -0.3556
NADP+ [1]: -0.2262
Octoluse Bisphosphate [1]: -0.1952
Pyroglutamic acid [1]: -0.02059
UDP-D-glucose [1]: -0.01878
UDP-D-glucuronate [1]: -0.4807
UDP-N-acetyl-glucosamine [1]: -0.2752
UDP [1]: -1.799
UMP [1]: -3.164
UTP [1]: -2.138
a-ketoglutarate [1]: -0.08894
citrate/isocitrate [1]: -0.02094
cytidine [1]: 0.3021
dATP [1]: 0.315
dGMP/AMP [1]: 0.04047
fumarate [1]: 0.2534
glucose-1/6-phosphate [1]: -0.2061
glycerate [1]: 0.1397
guanine [1]: 0.4421
guanosine [1]: 0.6466
hypoxanthine [1]: -0.006623
indole [1]: 0.04311
inosine [1]: 0.2618
2_3-Diphosphoglyceric acid [1]: -0.3467
4-phosphopantothenate [1]: -0.1285
6-phospho-D-gluconate [1]: 0.112
FMN [1]: -0.3509
IMP [1]: 0.3458
Pyrophosphate [1]: -0.3973
Sedoheptoluse bisphosphate [1]: 0.1676
cyclic-AMP [1]: -0.04329
glutathione disulfide [1]: 0.137
lactate [1]: -0.1203
myo-inositol [1]: 0.267
nicotinate [1]: 0.1101
ornithine [1]: 0.02403
phosphoenolpyruvate [1]: -0.2926
pyruvate [1]: 0.1322
ribose-phosphate [1]: -0.01159
sarcosine/alanine [1]: 0.3044
sn-glycerol-3-phosphate [1]: -0.401
succinate/methylmalonic acid [1]: 0.1519
uridine [1]: -0.6108
xanthosine [1]: 0.3254
EC50 (P. falciparum): 259 nM
fold change (IC50normal/ IC50hypoxia) (P. falciparum 3D7): 6.3
IC50 (P. falciparum 3D7; 3D7, read-out: P. falciparum 3D7 IC50 1% O2, 1% O2 hypoxia): 66 nM
IC50 (P. falciparum 3D7; 3D7, read-out: P. falciparum 3D7 IC50 5% O2): 415 nM

COc1ccc(-c2nc(NC(=O)CS(=O)(=O)c3ccc(F)cc3)sc2C)cc1 [MMV665915]
Acetyllysine [1]: -0.1771
N-acetyl-L-ornithine [1]: -0.3059
N-carbamoyl-L-aspartate [1]: 0.053
NADPH [1]: 0.1215
dAMP [1]: -0.4653
dCMP [1]: -0.2866
dTDP [1]: 0.07665
dTMP [1]: 0.08902
dTTP [1]: -0.1721
dihydroorotate [1]: -0.4672
orotate [1]: -0.4189
DLH [1]: 0.071
DLS/SDL/SID [1]: -0.2498
PD [1]: -0.3229
PEE [1]: -0.02112
PVNF [1]: 0.02436
3-phosphoglycerate [1]: -0.875
ADP-D-glucose [1]: -0.2338
ATP [1]: -0.08026
CDP [1]: 0.2353
D-sedoheptulose-1/7-phosphate [1]: 0.2732
FAD [1]: -0.2366
GMP [1]: -0.6644
NAD+ [1]: -0.2604
NADP+ [1]: -0.1454
Octoluse Bisphosphate [1]: -0.3427
Pyroglutamic acid [1]: 0.2622
UDP-D-glucose [1]: -0.2684
UDP-D-glucuronate [1]: -0.1851
UDP-N-acetyl-glucosamine [1]: -0.3241
UDP [1]: 0.1227
UMP [1]: -0.7313
UTP [1]: -0.06326
a-ketoglutarate [1]: -0.1843
citrate/isocitrate [1]: 0.1306
cytidine [1]: -0.25
dATP [1]: -0.1264
dGMP/AMP [1]: -0.5258
fumarate [1]: -0.3392
glucose-1/6-phosphate [1]: -0.6162
glycerate [1]: -0.5026
guanine [1]: -0.3726
guanosine [1]: -0.4353
hypoxanthine [1]: 0.151
indole [1]: 0.2601
inosine [1]: -0.1084
2_3-Diphosphoglyceric acid [1]: -0.3692
4-phosphopantothenate [1]: -0.3105
6-phospho-D-gluconate [1]: -0.535
FMN [1]: -0.2195
IMP [1]: -0.3295
Pyrophosphate [1]: -0.0001746
Sedoheptoluse bisphosphate [1]: -0.2854
cyclic-AMP [1]: -0.3638
glutathione disulfide [1]: -0.4248
lactate [1]: -0.1885
myo-inositol [1]: -0.6665
nicotinate [1]: -0.4616
ornithine [1]: -0.3065
phosphoenolpyruvate [1]: -0.5464
pyruvate [1]: -0.3441
ribose-phosphate [1]: -0.3706
sarcosine/alanine [1]: -0.5111
sn-glycerol-3-phosphate [1]: -0.2801
succinate/methylmalonic acid [1]: -0.2666
uridine [1]: -0.2088
xanthosine [1]: -0.3176
EC50 (P. falciparum): 448 nM
fold change (IC50reduced/IC50normal) (P. falciparum 3D7): 2.4
IC50 (P. falciparum 3D7; 3D7, read-out: P. falciparum 3D7 IC50 HCO3- (2g/L), standard media): 192 nM
IC50 (P. falciparum 3D7; 3D7, HCO3- reduced media, read-out: P. falciparum 3D7 IC50 HCO3- reduced): 464 nM
